For assay [1], the system named is Veillonella parvula (ATCC 17745). In words: Six species polymicrobial biofilm in constant-depth film fermenter, species composition: V. parvula. The settings on record: 19 days; mean ± standard deviation; n = 5-21. Type of assay: cell-based. The method, then: (§1) To model supragingival plaque six representative oral bacterial species, Streptococcus sanguinis (NCTC 7863), Streptococcus mutans Ingbritt, Actinomyces naeslundii (NCTC 10301), Veillonella parvula (ATCC 17745), Lactobacillus casei (NCDO 161) and Fusobacterium nucleatum (ATCC 10953) (Table 5) were cultured as a polymicrobial biofilm on a human enamel substratum in a constant-depth film fermenter (CDFF; Cardiff University, UK). The CDFF was housed in a 37° C. incubator under anaerobic conditions which were maintained by a constant flow of 5% CO2 in N2 at 1 L/h. The CDFF contained 15 removable polytetrafluoroethylene (PTFE) pans on a circular platform that was rotated at a constant speed of three rpm. The biofilms were grown on three enamel blocks (see below) in each PTFE pan using an artificial saliva medium (ASM, 2.5 g/L mucin type II (porcine, gastric, Sigma), 2.0 g/L bacteriological peptone (Oxoid), 2.0 g/L tryptone (Oxoid), 1.0 g/L yeast extract (Oxoid), 0.35 g/L NaCl, 0.2 g/L KCl, 0.2 mg/L vitamin K, 1 mg/L haemin and 0.1 g/L cysteine hydrochloride) at a constant flow rate of 30 mL/h. Prior to inoculation, the CDFF pan surfaces were conditioned for 24 h with ASM at a flow rate of 10 mL/h (McBain et al (2003) J Appl Microbiol. 94(4):655-66). In order to mimic in vivo bacterial growth conditions in the oral cavity with dietary sugar intake and to provide a high cariogenic challenge, a 1% (w/v) sucrose solution in ASM was pumped into the CDFF four times a day at four hourly intervals with a flow rate of 30 mL/h for 10 min.
(§2) Three treatments were applied to the polymicrobial biofilms: 290 ppm fluoride with 220 ppm fluoride as SnF2 and 70 ppm fluoride as NaF (referred to as SnF2), 2% CPP-ACP and 2% CPP-ACP-SnF2. […]
(§3) For each timepoint, DNA was extracted separately from 8-9 enamel blocks using PowerLyzer® PowerSoil® DNA Isolation Kits (MoBio Laboratories) following the manufacturers “Vacuum Protocol” with a Precellys® bead homogeniser (Bertin Technologies). Samples were quantified using a Qubit™ dsDNA HS assay kit (Life Technologies) before being stored at −80° C. […]

The test system of assay [2] is Lactobacillus casei (NCDO 161). In words: Six species polymicrobial biofilm in constant-depth film fermenter, species composition: L. casei. The class given is cell-based. The following applies: 19 days; mean ± standard deviation; n = 5-21. The method, then:
as §1
(§4) Three treatments were applied to the polymicrobial biofilms: 290 ppm fluoride with 220 ppm fluoride as SnF2 and 70 ppm fluoride as NaF (referred to as SnF2), 2% CPP-ACP and 2% CPP-ACP-SnF2. These treatments were compared with the control in which the test solution was replaced with ASM. Each treatment was applied using two 10 min pulses of the test solution in ASM with a flow rate of 30 mL/h. The first pulse started 30 min prior to the first sucrose pulse of the morning and the second started 3 h 30 min after the final sucrose pulse of the day.
(§5) On day 6, 12 and 19 after inoculation four pans were removed aseptically from the CDFF and replaced with blank sterile pans. Enamel blocks from the pans were removed for bacterial enumeration and transverse microradiography.
(§6) Planktonic and loosely attached bacterial cells were firstly removed from the enamel blocks by light washing with 100 μL ASM. […]
as §3

Assay [3] has as its system Streptococcus mutans Ingbritt. In words: Six species polymicrobial biofilm in constant-depth film fermenter, species composition: S. mutans. The class given is cell-based. The following applies: 19 days; mean ± standard deviation; n = 5-21. As for the experimental part: as §1, §2, §3
Assay [4] relates to Actinomyces naeslundii (NCTC 10301). In words: Six species polymicrobial biofilm in constant-depth film fermenter, species composition: A. naeslundii. Type of assay: cell-based. The method, then:
as §1, §2, §3

For assay [5], the system named is enamel substratum of the polymicrobial biofilm caries model. In words: Enamel subsurface demineralization in the polymicrobial biofilm caries model (transverse microradiography). Also noted: species or system human. The following applies: for integrated mineral loss ΔZd / lesion depth LD: twice daily 10 min pulses, mean ± SD. The method, then: as §1, §4, §5
Three hundred and sixty extracted human third molars were obtained under University of Melbourne ethics approval (HREC #1237616) and sterilized by exposure to 4.1 kGy of gamma radiation. Enamel blocks were cut from the teeth with approximately 6×3×3 mm dimensions using a water-cooled diamond blade saw (Minitom, Struers) and polished using a RotoPol/RotoForce lapping instrument with 1200, 2400, 4000 grit lapping papers (Struers) and 3 and 1 μm diamond polishing pastes (Struers). The blocks were positioned in custom made CDFF pans at a depth of 100 μm and sealed in place with yellow sticky wax (Kemdent) and sterilized by exposure to 4.1 kGy of gamma radiation.
Transverse microradiography was carried out essentially as described previously [Shen et al 2011]. […] The lesion depth (μm) was determined as the distance to the point at which the mineral content reaches 95% of the sound enamel value. The integrated mineral loss (IML), represented as ΔZd, was calculated by trapezoidal integration as the area between the sound-enamel densitometric profile and that of the demineralized enamel densitometric profile in vol % min·μm.

Assay [6] deals with Streptococcus sanguinis (NCTC 7863). Description: Six species polymicrobial biofilm in constant-depth film fermenter, species composition: S. sanguinis. Type of assay: cell-based. As for the experimental part:
as §1, §4, §5, §6, §3

In a further assay the test system is polymicrobial biofilm. In words: Biofilm ion analyses (calcium, phosphorous, tin; ICP-MS). The method, then: To model supragingival plaque six representative oral bacterial species, Streptococcus sanguinis (NCTC 7863), Streptococcus mutans Ingbritt, Actinomyces naeslundii (NCTC 10301), Veillonella parvula (ATCC 17745), Lactobacillus casei (NCDO 161) and Fusobacterium nucleatum (ATCC 10953) (Table 5) were cultured as a polymicrobial biofilm on a human enamel substratum in a constant-depth film fermenter (CDFF; Cardiff University, UK). […] The CDFF contained 15 removable polytetrafluoroethylene (PTFE) pans on a circular platform that was rotated at a constant speed of three rpm. […] These treatments were compared with the control in which the test solution was replaced with ASM. […] The first pulse started 30 min prior to the first sucrose pulse of the morning and the second started 3 h 30 min after the final sucrose pulse of the day. Calcium, phosphorous and tin content of polymicrobial biofilm samples were determined by inductively-coupled mass spectrometry essentially as described previously [[…] et al 2005].

The test system of assay [7] is Fusobacterium nucleatum (ATCC 10953). In words: Six species polymicrobial biofilm in constant-depth film fermenter, species composition: F. nucleatum. Type of assay: cell-based. The method, then:
as §1, §4, §5
Planktonic and loosely attached bacterial cells were firstly removed from the enamel blocks by light washing with 100 μL ASM. To harvest the biofilm cells on each block, the surface was scraped with a sterile scraper with 1 mL of ASM. The biofilm bacterial cells were sedimented by centrifugation (10,000 g, 10 min), the supernatant carefully decanted and the cell pellets stored at −80° C. until required for DNA extraction. The enamel blocks were then used for sectioning and microradiography.
For each timepoint, DNA was extracted separately from 8-9 enamel blocks using PowerLyzer® PowerSoil® DNA Isolation Kits (MoBio Laboratories) following the manufacturers “Vacuum Protocol” with a Precellys® bead homogeniser (Bertin Technologies). Samples were quantified using a Qubit™ dsDNA HS assay kit (Life Technologies) before being stored at −80° C.
The Ion Amplicon Library Preparation Fusion Method (Thermo Fisher Scientific), was adapted for amplification of the V4 region of the 16S rRNA gene. […]

Where [8] appears, read: 19 days, mean ± standard deviation, n = 5-21.

Several values for one entry are separate records, joined by “and”; a condition that tells them apart may be missing. Identical values can stand only once. Marks after values point to notes of the source that are not given here. Bounds are passed on as bounds.

As for `[F][Sn][F]` [SnF2, stannous fluoride, reference compound], the “V. parvula as a percentage of total bacteria in the biofilm” value in assay [1] is 6.50 ± 1.48^b %. Also, the “L. casei as a percentage of total bacteria in the biofilm” value in assay [2] is reported as 10.67 ± 6.92^cd %. Also, the “S. mutans as a percentage of total bacteria in the biofilm” value in assay [3] was 59.82 ± 4.59^a %. Further, the “A. naeslundii as a percentage of total bacteria in the biofilm” value in assay [4] (setting [8]) is given as 5.54 ± 1.74^abc %. In addition, the “change in abundance of A. naeslundii relative to the control (in words)” value in assay [4] (twice daily treatment, day 19) is given as “significantly reduced”. Moreover, in assay [5] (Day 6), the “integrated mineral loss ΔZd” value turned out to be 636.7 ± 129.4 vol % min · μm and the “lesion depth LD” value is given as 17.6 ± 1.2^c μm. For the same compound, in assay [5] (Day 12), the “integrated mineral loss ΔZd” value is on record as 1352.1 ± 147.3^bde vol % min · μm and the “lesion depth LD” value is on record as 37.1 ± 5.3^bdf μm. In assay [5] (Day 19), the “integrated mineral loss ΔZd” value is recorded as 2096.3 ± 66.7^ae vol % min · μm and the “lesion depth LD” value was 46.1 ± 4.7^be μm. The rate of demineralization in assay [5] (between day 6 and day 19) is on record as 112.1 vol % min·μm/day. In addition, the “reduction in rate of demineralization relative to control” value in assay [5] (between day 6 and day 19, twice daily exposure) is 50.2% and 50%. Moreover, the “S. sanguinis as a percentage of total bacteria in the biofilm” value in assay [6] (setting [8]) was 17.47 ± 3.44^a %. Further, the “change in abundance of S. sanguinis relative to the control (in words)” value in assay [6] (twice daily treatment, day 19) is given as “significantly increased”. In addition, in the assay with polymicrobial biofilm (ICP-MS), the “increase in calcium in the biofilm relative to the control” value is listed as “two-fold”, the “increase in phosphorous in the biofilm relative to the control” value is reported as “two-fold” and the “peak stannous concentration in the biofilm” value is on record as 1.0 nmol/mg biofilm wet weight. In the assay with polymicrobial biofilm (during SnF2 treatment), the “Sn accumulated in the polymicrobial biofilms, concentration” value is given as no more than 119 ppm. Further, the “F. nucleatum as a percentage of total bacteria in the biofilm” value in assay [7] (setting [8]) is 0.02 ± 0.01^cd %. For the same compound, the “change in abundance of F. nucleatum after treatment relative to the control (increase)” value in assay [7] (day 19, FIG. 5B) is −2%.

The record behind these values is patent US11717536B2, “Treatment for periodontitis” (THE UNIVERSITY OF MELBOURNE, priority 2017, dated 2023).
